Data from paper PMC11995724, “Antibiotic target discovery by integrated phenotypic and activity-based profiling of electrophilic fragments” (Cell chemical biology, 2025).
Structures can show the parent of a compound that is named as a salt.

Assay: in vitro
Details: human, hek293t cells

| SMILES | viability at 48 h, 25 µM |
| --- | --- |
| COc1ccc(S(=O)(=O)N2CCOCC2)cc1NC(=O)CCl [4-O04, 2-chloro-N-[2-methoxy-5-(morpholine-4-sulfonyl)phenyl]acetamide] | 1.63% |
| O=C(CCl)Nc1cc2c(cc1[N+](=O)[O-])OCCCO2 [4-O05, 2-chloro-N-(8-nitro-3,4-dihydro-2H-1,5-benzodioxepin-7-yl)acetamide] | 103% |
| CC(Cl)C(=O)NC1CCCCC1 (stereo not shown) [4-O06, 2-chloro-N-cyclohexylpropanamide] | 115% |
| COc1cc([N+](=O)[O-])ccc1NC(=O)CCl [4-O07, 2-chloro-N-(2-methoxy-4-nitrophenyl)acetamide] | 1.19% |
| CC(Cl)C(=O)Nc1ccc(F)c(F)c1F (stereo not shown) [4-O08, 2-chloro-N-(2,3,4-trifluorophenyl)propanamide] | 88.8% |
| N#Cc1cc([N+](=O)[O-])ccc1NC(=O)CCl [4-O09, 2-chloro-N-(2-cyano-4-nitrophenyl)acetamide] | 1.1% |
| CCC(C)c1ccccc1NC(=O)C(C)Cl (stereo not shown) [4-O10, N-[2-(butan-2-yl)phenyl]-2-chloropropanamide] | 85.1% |
| Cc1nn(Cc2ccccc2)c(C)c1CNC(=O)CCl [4-O11, N-[(1-benzyl-3,5-dimethyl-1H-pyrazol-4-yl)methyl]-2-chloroacetamide] | 1.47% |
| O=C(CCl)NCCc1ccc(Cl)cc1 [4-O12, 2-chloro-N-[2-(4-chlorophenyl)ethyl]acetamide] | 7.11% |
| O=C(CCl)Nc1ccccc1Sc1ccc(Cl)cc1 [4-O13, 2-chloro-N-{2-[(4-chlorophenyl)sulfanyl]phenyl}acetamide] | 0.318% |
| CC(C)c1ccc(C(NC(=O)CCl)C(C)C)cc1 (stereo not shown) [4-O14, 2-chloro-N-{2-methyl-1-[4-(propan-2-yl)phenyl]propyl}acetamide] | 0.576% |
| CCOC(=O)c1c(NC(=O)CCl)sc(C)c1C [4-O15, ethyl 2-(2-chloroacetamido)-4,5-dimethylthiophene-3-carboxylate] | 57% |
| O=C(CCl)Nc1c(Cl)c(Cl)cc(Cl)c1Cl [4-O16, 2-chloro-N-(2,3,5,6-tetrachlorophenyl)acetamide] | 1.16% |
| COc1ccccc1NC(=O)c1ccc(NC(=O)CCl)cc1 [4-O17, 4-(2-chloroacetamido)-N-(2-methoxyphenyl)benzamide] | -0.113% |
| O=C(CCl)N1N=C(c2cccs2)CC1c1cccs1 (stereo not shown) [4-O18, 1-[3,5-bis(thiophen-2-yl)-4,5-dihydro-1H-pyrazol-1-yl]-2-chloroethan-1-one] | 0.013% |
| O=C(CCl)NCC1(c2ccccc2)CCC1 [4-O19, 2-chloro-N-[(1-phenylcyclobutyl)methyl]acetamide] | 0.976% |
| O=C(CCl)N1N=C(c2cccs2)CC1c1ccc(F)cc1 (stereo not shown) [4-O20, 2-chloro-1-[5-(4-fluorophenyl)-3-(thiophen-2-yl)-4,5-dihydro-1H-pyrazol-1-yl]ethan-1-one] | 0.502% |
| Cc1c(C#N)c(NC(=O)CCl)n(Cc2ccc(F)cc2)c1C [4-O21, 2-chloro-N-{3-cyano-1-[(4-fluorophenyl)methyl]-4,5-dimethyl-1H-pyrrol-2-yl}acetamide] | 0.102% |
| Cc1ccc(C2=NN(C(=O)CCl)C(c3cccs3)C2)cc1 (stereo not shown) [4-O22, 2-chloro-1-[3-(4-methylphenyl)-5-(thiophen-2-yl)-4,5-dihydro-1H-pyrazol-1-yl]ethan-1-one] | -0.0957% |
| CCc1ccc(NC(=O)CCl)cc1 [4-P03, 2-chloro-N-(4-ethylphenyl)acetamide] | 0.338% |
| NC(=O)c1ccc(NC(=O)CCl)cc1 [4-P04, 4-(2-chloroacetamido)benzamide] | 0.712% |
| CCc1ccccc1NC(=O)CN(C)C(=O)C(C)Cl (stereo not shown) [4-P05, 2-chloro-N-{[(2-ethylphenyl)carbamoyl]methyl}-N-methylpropanamide] | 81% |
| O=C(CCl)Nc1ncc(Cc2ccccc2Cl)s1 [4-P07, 2-chloro-N-{5-[(2-chlorophenyl)methyl]-1,3-thiazol-2-yl}acetamide] | -0.245% |
| O=C(CCl)Nc1cccc(S(=O)(=O)N2CCOCC2)c1 [4-P08, 2-chloro-N-[3-(morpholine-4-sulfonyl)phenyl]acetamide] | 0.715% |
| CCN(CC)S(=O)(=O)c1cc(NC(=O)C(C)Cl)ccc1C (stereo not shown) [4-P09, 2-chloro-N-[3-(diethylsulfamoyl)-4-methylphenyl]propanamide] | 69.6% |
| CCN(C(=O)CCl)c1c(N)n(Cc2ccccc2)c(=O)[nH]c1=O [4-P10, N-(6-amino-1-benzyl-2,4-dioxo-1,2,3,4-tetrahydropyrimidin-5-yl)-2-chloro-N-ethylacetamide] | 65.4% |
| CC(Cl)C(=O)NCc1cccs1 (stereo not shown) [4-P11, 2-chloro-N-[(thiophen-2-yl)methyl]propanamide] | 68.4% |
| NS(=O)(=O)c1ccc(CNC(=O)CCl)cc1 [4-P12, 2-chloro-N-[(4-sulfamoylphenyl)methyl]acetamide] | 0.879% |

| SMILES | viability at 48 h, 25 µM |
| --- | --- |
| O=C(CCl)NSc1ccc([N+](=O)[O-])cc1 [4-P13, 2-chloro-N-[(4-nitrophenyl)sulfanyl]acetamide] | 3.88% |
| O=C(CCl)Nc1ccc(Cl)c(S(=O)(=O)N2CCCCC2)c1 [4-P14, 2-chloro-N-[4-chloro-3-(piperidine-1-sulfonyl)phenyl]acetamide] | -0.167% |
| CCOc1ccc(S(=O)(=O)N2CCN(C(=O)CCl)CC2)cc1 [4-P15, 2-chloro-1-[4-(4-ethoxybenzenesulfonyl)piperazin-1-yl]ethan-1-one] | 0.587% |
| CCN(C(=O)C(C)Cl)c1ccccc1 (stereo not shown) [4-P16, 2-chloro-N-ethyl-N-phenylpropanamide] | 109% |
| COc1ccc([N+](=O)[O-])cc1NC(=O)CCl [4-P17, 2-chloro-N-(2-methoxy-5-nitrophenyl)acetamide] | 0.714% |
| COc1ccc(CN2CCN(C(=O)CCl)CC2)cc1F [4-P18, 2-chloro-1-{4-[(3-fluoro-4-methoxyphenyl)methyl]piperazin-1-yl}ethan-1-one hydrochloride] | 0.482% |
| O=C(CCl)Nc1cccc(Oc2ccccc2)c1 [4-P19, 2-chloro-N-(3-phenoxyphenyl)acetamide] | 0.14% |
| Cn1cc(S(=O)(=O)N2CCOCC2)cc1C(=O)NC(=O)CCl [4-P20, N-(2-chloroacetyl)-1-methyl-4-(morpholine-4-sulfonyl)-1H-pyrrole-2-carboxamide] | 106% |
| CCS(=O)(=O)c1ccc(NC(=O)CCl)c(O)c1 [4-P21, 2-chloro-N-[4-(ethanesulfonyl)-2-hydroxyphenyl]acetamide] | 73.2% |
| COc1ccc(C2CCCN2C(=O)CCl)c(OC)c1 (stereo not shown) [4-P22, 2-chloro-1-[2-(2,4-dimethoxyphenyl)pyrrolidin-1-yl]ethan-1-one] | 0.348% |
| COc1cccc(NC(=O)CN(C)C(=O)CCl)c1 [5-A03, 2-chloro-N-{[(3-methoxyphenyl)carbamoyl]methyl}-N-methylacetamide] | 0.139% |
| Cc1nc2n(n1)CCN(C(=O)C(C)Cl)C2 (stereo not shown) [5-A04, 2-chloro-1-{2-methyl-5H,6H,7H,8H-[1,2,4]triazolo[1,5-a]pyrazin-7-yl}propan-1-one] | 107% |
| CCC(C)(C)C1CCc2c(sc(NC(=O)CCl)c2C#N)C1 (stereo not shown) [5-A05, 2-chloro-N-[3-cyano-6-(2-methylbutan-2-yl)-4,5,6,7-tetrahydro-1-benzothiophen-2-yl]acetamide] | -0.0335% |
| CN(CCC1CCCCC1)C(=O)CCl [5-A06, 2-chloro-N-(2-cyclohexylethyl)-N-methylacetamide] | 0.304% |
| CC(Cl)C(=O)Nc1cccc(S(=O)(=O)N(C)C)c1 (stereo not shown) [5-A07, 2-chloro-N-[3-(dimethylsulfamoyl)phenyl]propanamide] | 55.5% |
| O=C(CCl)N1CCN(C(=O)CC(F)(F)F)CC1 [5-A08, 1-[4-(2-chloroacetyl)piperazin-1-yl]-3,3,3-trifluoropropan-1-one] | 0.522% |
| O=C(CCl)NCC1CC(=O)N(c2ccccc2)C1 (stereo not shown) [5-A09, 2-chloro-N-[(5-oxo-1-phenylpyrrolidin-3-yl)methyl]acetamide] | 0.822% |
| CCn1nc(C)c(CN(C)C(=O)CCl)c1C [5-A10, 2-chloro-N-[(1-ethyl-3,5-dimethyl-1H-pyrazol-4-yl)methyl]-N-methylacetamide] | 1.55% |
| O=C(CCl)NC1CCC(O)(c2cccc(F)c2)CC1 (stereo not shown) [5-A11, 2-chloro-N-[4-(3-fluorophenyl)-4-hydroxycyclohexyl]acetamide] | 0.51% |
| CC(C)CN(C(=O)CCl)c1cnn(-c2ccccn2)c1 [5-A12, 2-chloro-N-(2-methylpropyl)-N-[1-(pyridin-2-yl)-1H-pyrazol-4-yl]acetamide] | 0.323% |
| Cc1cccc(C)c1NC(=O)CN(C)C(=O)CCl [5-A13, 2-chloro-N-{[(2,6-dimethylphenyl)carbamoyl]methyl}-N-methylacetamide] | 0.212% |
| Cc1nn(C)c(C)c1CN(C(=O)CCl)C1CCCCC1C (stereo not shown) [5-A14, 2-chloro-N-(2-methylcyclohexyl)-N-[(1,3,5-trimethyl-1H-pyrazol-4-yl)methyl]acetamide] | 0.467% |
| COc1ccc(CN2CCN(C(=O)CCl)CC2)cc1 [5-A15, 2-chloro-1-{4-[(4-methoxyphenyl)methyl]piperazin-1-yl}ethan-1-one hydrochloride] | -0.117% |
| Cn1nnc(CN(C(=O)CCl)C2CCCCCCC2)n1 [5-A16, 2-chloro-N-cyclooctyl-N-[(2-methyl-2H-1,2,3,4-tetrazol-5-yl)methyl]acetamide] | 0.784% |
| CC(NC(=O)CCl)c1ccc(-c2ccccc2)cc1 (stereo not shown) [5-A17, N-(1-{[1,1'-biphenyl]-4-yl}ethyl)-2-chloroacetamide] | 123% |
| CN(C(=O)CCl)C1CCN(c2ccccc2F)C1=O (stereo not shown) [5-A18, 2-chloro-N-[1-(2-fluorophenyl)-2-oxopyrrolidin-3-yl]-N-methylacetamide] | 0.916% |
| CC(Cl)C(=O)NCc1ccc(F)cc1 (stereo not shown) [5-A19, 2-chloro-N-[(4-fluorophenyl)methyl]propanamide] | 76.2% |
